Some results are limits rather than exact numbers.

These results are taken from EP4755888A1 (ILAb Co., Ltd., priority 2023, dated 2025).

For series [1], the target named is PD-1/PD-L1 (Homo sapiens, UniProt Q9NZQ7). The series is described as follows: TR-FRET PD-1/PD-L1 binding inhibition at the molecular level (free proteins). The note with it: Tag1-PD-L1 and Tag2-PD-1 proteins, twelve concentrations from 200 nM, 2 hours at room temperature, read-out: FRET assay (IC50). In outline:
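HTRF read-out at 665/620 nm after 2 h at room temperature. Detection used anti-Tag1 Eu cryptate plus anti-Tag2 XL665 antibodies. Tagged PD-L1 and PD-1 proteins were pre-mixed with compound across twelve […] 1:2 dilutions starting at 200 nM.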

In series [2] the test system is PD-1/PD-L1. The series is described as follows: PD-1/PD-L1 blockade bioassay at the cellular level (PD-L1 aAPC/CHO-K1 cells + PD-1 Effector T cells, luciferase). It counts as cell-based. The following applies: Homo sapiens, T-cell; PD-L1 aAPC/CHO-K1 cells with PD-1 Effector T cells, 6 hours, luminescence; read-out: PD-1/PD-L1 Inhibitory Activity EC50. The protocol: In order to evaluate the effect of the compounds of the present invention, synthesized according to the above Preparation Examples, on blocking signal transduction between PD-1/PD-L1-expressing cells, a PD-1/PD-L1 blockade bioassay was conducted as described below.
Specifically, PD-L1 aAPC/CHO-K1 cells engineered to express human PD-L1 were seeded into a 96-well white plate and cultured for one day. On the following day, the compounds were prepared in a 96-well plate by serial dilution at concentrations starting from 10 µM and 5 µM, followed by 1/4 dilutions to obtain a total of ten concentrations. The culture medium in the plate seeded with the PD-L1 aAPC/CHO-K1 cell line was removed, and 40 µL of each prepared compound solution was added to a 96-well plate. Thereafter, 40 µL of PD-1 Effector T cell line engineered to express human PD-1 was additionally added, and then cultured for 6 hours. After 6 hours, 80 µL of Bio-Glo luciferase buffer was added to each well, followed by incubation at room temperature for 10 minutes, and luminescence was measured using a microplate reader.

A further series has as its target hPD-L1 (Homo sapiens, UniProt Q9NZQ7). The series can be described thus: TR-FRET dimerization of hPD-L1 molecules. Format: biochemical. The following applies: for EC50: Fc tag-hPD-L1 and His tag-hPD-L1, twelve concentrations from 10 µM; for induction of dimerization of hPD-L1 molecules (in words): summary of Table 3. The protocol:
In order to evaluate the dimerization of hPD-L1 molecules induced by the compounds of the present invention synthesized according to the above Preparation Examples, a TR-FRET (Time-Resolved Fluorescence Energy Transfer) experiment was performed as described below.
Specifically, the compounds were prepared in a 96-well plate by serial dilution starting from 10 µM with 1/3 dilutions to obtain a total of twelve concentrations. Thereafter, 2 µL of each compound solution was added to a 384-well plate. Fc tag-hPD-L1 protein and His tag-hPD-L1 protein were each prepared at a 1x concentration, mixed at a ratio of 1:1 of above two proteins, and 8 µL of the mixed protein solution was added to each well of the 384-well plate containing the compounds, followed by incubation at room temperature for one day. On the following day, Anti-6His-Tb Cryptate Gold antibody and Anti-human IgG-XL665 antibody were each prepared at a 1x concentration, mixed at a ratio of 1:1, and 10 µL of the mixed antibody solution was added to each well of the 384-well plate containing the compounds and proteins, followed by incubation at room temperature for 2 hours. Upon completion of the reaction, fluorescence signals at wavelengths of 620 nm and 665 nm were measured using a microplate reader.

The target in series [3] is T1, PD-L1 expressed on the cell surface (MC38 hPD-L1) (Homo sapiens, UniProt Q9NZQ7).
T1 construct: expressed in transfected cells; host or cells: MC38 mouse colon cancer cell line expressing human PD-L1
T1 sequence (Q9NZQ7 19-290): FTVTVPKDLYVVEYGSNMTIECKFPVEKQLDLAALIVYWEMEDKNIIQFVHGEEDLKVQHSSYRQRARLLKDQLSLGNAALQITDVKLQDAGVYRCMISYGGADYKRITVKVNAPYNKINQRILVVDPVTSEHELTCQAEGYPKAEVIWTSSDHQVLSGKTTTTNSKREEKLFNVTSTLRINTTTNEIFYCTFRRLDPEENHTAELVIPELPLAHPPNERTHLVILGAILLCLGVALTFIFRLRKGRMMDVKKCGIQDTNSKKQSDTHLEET
The series can be described thus: Internalization of cell surface PD-L1, flow cytometry with fluorescent staining. It counts as cell-based. The following applies: MC38 hPD-L1 cells, 1 µM, 4 hours; untreated 90% to 99%. The protocol:
In order to evaluate the internalization of cell surface PD-L1 induced by the compounds of the present invention synthesized according to the above Preparation Examples, a flow cytometry experiment using fluorescent staining was conducted as described below.
Specifically, a mouse colon cancer cell line expressing human PD-L1 (MC38 hPD-L1) was seeded into a 24-well plate at a density of 5 x 10^5 cells per well, followed by treatment with Compounds 206 to 227 at a concentration of 1 µM and incubation for 4 hours. After 4 hours, the compound-treated MC38 hPD-L1 cells were collected and stained with PE anti-hPD-L1 fluorecence at room temperature for 30 minutes. The rate of PD-L1 expression on the cell surface was then quantified using flow cytometry.
(In general: Flow cytometry measures light scatter and fluorescence of single cells or particles in a stream.)

The next series relates to tumor. The series is described as follows: tumor growth inhibition in a group administered with the compound (FIG. 1). It counts as in vivo. The note with it: graph of FIG. 1; group administered with Compound 218; no numbers printed in this part.
For a further series, the system named is MC38 hPD-L1. The series can be described thus: Tumor growth inhibition in MC38 hPD-L1 subcutaneous mouse model. Format: in vivo. The following applies: 50 mg/kg intraperitoneally once daily, female C57BL/6 mice. The protocol:
In order to evaluate whether the tumor inhibitory effects of the compounds synthesized according to the above Preparation Examples are also effective in vivo, animal experiments were conducted as described below.
A mouse colon cancer cell line expressing human PD-L1 (MC38 hPD-L1) was prepared at a density of 1.25 x 10^6 cells in 100 µL of DPBS and inoculated subcutaneously into the flank of 6-week-old female C57BL/6 mice. When the average tumor volume reached approximately 50 mm^3, the mice were divided into three experimental groups, with eight mice per group. Vehicle and Compound 218 (50 mg/kg) were administered intraperitoneally once daily, while Durvalumab (anti-PD-L1 mAb) was administered intraperitoneally twice per week. Tumor volume and body weight were measured every three days.

Sequence of PD-1/PD-L1 (Homo sapiens, UniProt Q9NZQ7) (Q9NZQ7 19-238 limits assumed): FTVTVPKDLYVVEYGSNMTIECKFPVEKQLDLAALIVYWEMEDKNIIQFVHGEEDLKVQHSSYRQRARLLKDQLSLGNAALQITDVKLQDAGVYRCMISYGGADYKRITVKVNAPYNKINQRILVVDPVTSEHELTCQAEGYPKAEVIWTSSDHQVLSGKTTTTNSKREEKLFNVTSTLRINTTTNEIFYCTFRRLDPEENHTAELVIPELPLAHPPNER
Sequence of hPD-L1 (Q9NZQ7 19-238 limits assumed): as above
Sequence of hPD-L1 (Q9NZQ7 19-238 limits assumed): as above

Consider `Cc1c(NC(=O)c2ccc(CN3CC[C@@H](O)C3)cn2)cccc1-c1cccc(NC(=O)c2cc3n(n2)CCC[C@@H]3N2CC[C@@H](O)C2)c1C` [Compound 216, (S)-4-((R)-3-hydroxypyrrolidin-1-yl)-N-(3'-(5-(((R)-3-hydroxypyrrolidin-1-yl)methyl)picolinamido)-2,2'-dimethyl-[1,1'-biphenyl]-3-yl)-4,5,6,7-tetrahydropyrazolo[1,5-a]pyridine-2-carboxamide], for which, on PD-1/PD-L1 [1], the IC50 is below 10 nM. Besides, the EC50 in the series on PD-1/PD-L1 [2] was determined as 31.6 nM. Moreover, at hPD-L1, the EC50 was determined as 25.2 nM and the “induction of dimerization of hPD-L1 molecules (in words)” value (shortened to “induction”) is recorded as “effectively induced dimerization of hPD-L1 molecules at the nanomolar level”. Besides, the “Cell surface PD-L1 expression level (%)” value in series [3] was 3.0%.
Consider `O=C(O)CN[C@H]1CCCn2nc(C(=O)Nc3cccc(-c4cccc(Nc5nccc6cc(CN7CC[C@@H](O)C7)cnc56)c4Cl)c3Cl)cc21` [Compound 218, 2-(((S)-2-((2,2'-dichloro-3'-((3-(((R)-3-hydroxypyrrolidin-1-yl)methyl)-1,7-naphthyridin-8-yl)amino)-[1,1'-biphenyl]-3-yl)carbamoyl)-4,5,6,7-tetrahydropyrazolo[1,5-a]pyridin-4-yl)amino)acetic acid], for which the IC50 at PD-1/PD-L1 [1] is below 10 nM. In the series with PD-1/PD-L1 [2], the EC50 was determined as 19.2 nM. Moreover, in the series with tumor, the “tumor growth inhibitory effect” value is “tumor growth inhibitory effect”. Also, the “tumor growth inhibition compared to the vehicle-treated group” value in the series with MC38 hPD-L1 (Figure 1) is “significant inhibition of tumor growth”. For the same molecule, the “change in body weight of mice” value in the series with MC38 hPD-L1 (Figure 2) is “no change in body weight”. At hPD-L1, the EC50 stood at 6.1 nM and the “induction” value is given as “effectively induced dimerization of hPD-L1 molecules at the nanomolar level”. In series [3], the “Cell surface PD-L1 expression level (%)” value is listed as 0.3%.
For the molecule `O=C(Nc1cccc(-c2cccc(Nc3nccc4cc(CN5CC[C@H](O)C5)cnc34)c2Cl)c1Cl)c1cc2n(n1)CCC[C@H]2N1CCC(C(=O)O)CC1` [Compound 227, 1-((R)-2-((2,2'-dichloro-3'-((3-(((S)-3-hydroxypyrrolidin-1-yl)methyl)-1,7-naphthyridin-8-yl)amino)-[1,1'-biphenyl]-3-yl)carbamoyl)-4,5,6,7-tetrahydropyrazolo[1,5-a]pyridin-4-yl)piperidine-4-carboxylic acid], the IC50 on PD-1/PD-L1 [1] fell in the range of 10 to 100 nM. In the series on PD-1/PD-L1 [2], the EC50 came out at 20.2 nM. On hPD-L1, the EC50 worked out at 26.2 nM and the “induction” value was “effectively induced dimerization of hPD-L1 molecules at the nanomolar level”. Further, in series [3], the “Cell surface PD-L1 expression level (%)” value is recorded as 1.6%.

For orientation: IC50 means the midpoint of a concentration-inhibition curve.
